Measured values published in patent US12559496B2, “Imidazopyrimidines as modulators of IL-17” (Janssen Pharmaceutica NV, priority 2020, dated 2026).
pIC50: −log10 of the molar value.

Key:
[1] = target: IL-17A(FLAG-Tagged): IL-17RA(His-Tagged) (Homo sapiens, UniProt Q16552, K93Q); assay: IL-17A(FLAG-Tagged): IL-17RA(His-Tagged) Binding Disruption Eu-HTRF Assay; details: disruption of IL-17A/IL-17RA binding; simple average if tested more than once
Source text: IL-17A(FLAG-Tagged): IL-17RA(His-Tagged) Binding Disruption Eu-HTRF Assay
An antibody directed against the FLAG tag of IL-17A (SEQ ID NO: 1) is labeled with the HTRF donor chromophore (Europium-cryptate). IL-17A is present as a dimer that is “locked into” this quaternary structure due to the formation of loop-spanning […] disulfide bridges. The construct of IL-17RA used in the assay excludes the […] portion of the receptor and is fused to a C-terminal 10×His tag (SEQ ID NO:2). An antibody directed against the His tag of the IL-17RA chimera is labeled with the HTRF acceptor chromophore (“D2”). The fluorescence-resonance energy transfer (FRET) depends on the vicinity of the donor chromophore to the acceptor, and interruption of the binding between the IL-17A and IL-17RA causes the reduction/loss of FRET. Therefore, this assay allows to evaluate the compound effect on the binding IL-17A and IL-17RA by monitoring the fluorescence intensity of donor vs acceptor. The assay is run as described below.
40 nL of 2-fold serial diluted compound solution for total 22 dilution points is added into each well of a 1536-well, white, low-volume, non-binding plate (Greiner #782904), then 2 μL of FLAG tagged IL-17A at 2× final concentration (2.5 nM) in solution of PBS+0.01% Triton-X100 is added to each well. The assay plate is briefly centrifuged then incubated for 1 h at rt. A mixed solution is prepared containing 2×5 nM 10HIS×IL-17RA, 2×2.5 nM Eu-anti-FLAG (CISBIO), 2×5 nM D2-anti-HIS (CISBIO) in PBS+0.01% Triton-X100+200 mM Potassium Fluoride (Sigma 60238) and 2 μL of mix is added to each well of the assay plate. The plate is briefly centrifuged then incubated for 2 h at rt. The HTRF intensities at the wavelength of donor (620 nm) and acceptor (665 nm) are measured using BMG Pherastar. The ratio between intensities at two wavelengths is calculated and plotted against the compound concentration and the data is fitted to a one-site competition model to yield IC50 of the compound.

[2] = system: IL-17A-induced G-CSF production in human normal keratinocytes (NHK); assay: NHK Assay: IL-17A-induced G-CSF production in human normal keratinocytes; assay type: cell-based; details: 24 h, IL-17A 5 ng/mL, 5% FBS, simple average if tested more than once
Procedure: IL-17A acts directly on keratinocytes through binding to dimeric receptor IL-17RA/RC and drives the production of a number of inflammatory mediators known to be elevated in psoriasis lesional tissue. IL-17A small molecule inhibitors that block the IL-17A to interact with IL-17R would inhibit the IL-17A signaling in its targeted cells such as keratinocytes. The compound functional activity is evaluated for its impact on IL-17A-induced G-CSF production in human normal keratinocytes (NHK).
Adult normal human keratinocytes are cultured in keratinocyte growth medium (Lonza) in a flask till reaching ˜ 90% confluence, then cells are transferred to a 384-well plate at density of 3000-4000 cell/well. Recombinant human IL-17A (Gibco PHC9174) is pre-incubated with titrated compound or DMSO for 1 h at rt then added to the cell culture plate. The final concentration of IL-17A is 5 ng/mL and DMSO is 0.2%, in the culture containing 5% FBS. Cells are cultured/treated for 24 h at 37° C. Supernatants are collected and G-CSF production is measured through HTRF technology using Human G-CSF Kit (CisBio). G-CSF concentration was extrapolated from the standard curve and IC50 is determined using GraphPad Prism. Cell viability is also evaluated using CellTiter-Glo kit (Promega) and effect of compound on cell viability is compared to DMSO control.

Sequence of UniProt Q16552 (Q16552 with tags, fused parts or gaps K93Q): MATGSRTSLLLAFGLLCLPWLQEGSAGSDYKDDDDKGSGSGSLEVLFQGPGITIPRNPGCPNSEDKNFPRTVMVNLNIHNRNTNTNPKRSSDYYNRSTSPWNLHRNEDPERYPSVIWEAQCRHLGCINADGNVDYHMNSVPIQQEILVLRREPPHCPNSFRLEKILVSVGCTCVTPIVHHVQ

Row | Compound | pIC50 [1] | pIC50 ([2]; Homo sapiens, Keratinocyte) | pIC50 [2]
1 | O=C(CC1CC(F)(F)C1)N[C@@H](c1ccn2cc([C@@H](NC(=O)[C@@H]3C[C@H]3C(F)(F)F)C3CCC(F)(F)CC3)nc2n1)C1CC1 (relative stereo) [Example 11, trans-(1S*,2S*)—N—((S)-(7-((R)-Cyclopropyl(2-(3,3-difluorocyclobutyl)acetamido)methyl)imidazo[1,2-a]pyrimidin-2-yl)(4,4-difluorocyclohexyl)methyl)-2-(trifluoromethyl)cyclopropane-1-carboxamide] | 6.18 | 6.27 | 
2 | O=C(CC1CC(F)(F)C1)N[C@@H](c1ccn2cc([C@@H](NC(=O)[C@H]3C[C@@H]3C(F)(F)F)C3CCC(F)(F)CC3)nc2n1)C1CC1 (relative stereo) [Example 12, trans-(1R*,2R*)—N—((S)-(7-((R)-Cyclopropyl(2-(3,3-difluorocyclobutyl)acetamido)methyl)imidazo[1,2-a]pyrimidin-2-yl)(4,4-difluorocyclohexyl)methyl)-2-(trifluoromethyl)cyclopropane-1-carboxamide] | 5.22 | < 4.70 | 
3 | O=C(CCC(F)(F)F)NC(c1ccn2cc([C@@H](NC(=O)c3cnnn3CCC(F)(F)F)C3CCC(F)(F)CC3)nc2n1)C1CC1 (single isomer, unassigned) [Example 2, N—((S)-(7-((S*)-Cyclopropyl(4,4,4-trifluorobutanamido)methyl)imidazo[1,2-a]pyrimidin-2-yl)(4,4-difluorocyclohexyl)methyl)-1-(3,3,3-trifluoropropyl)-1H-1,2,3-triazole-5-carboxamide] | 5.43 |  | 5.21
4 | CC(CC(=O)N[C@H](c1ccn2cc([C@@H](NC(=O)c3ccnc(CC(F)(F)F)c3)C3CCC(F)(F)CC3)nc2n1)C1CC1)C(F)(F)F (single isomer, unassigned) [Example 4, N—((S)-(7-((S)-Cyclopropyl((S*)-4,4,4-trifluoro-3-methylbutanamido)methyl)imidazo[1,2-a]pyrimidin-2-yl)(4,4-difluorocyclohexyl)methyl)-2-(2,2,2-trifluoroethyl)isonicotinamide] | 5.74 |  | 5.92
5 | CC(CC(=O)N[C@@H](c1ccn2cc([C@@H](NC(=O)[C@@H]3C[C@H]3C(F)(F)F)C3CCC(F)(F)CC3)nc2n1)C1CC1)C(F)(F)F (single isomer, unassigned) [Example 5] | 6.15 | 6.02 | 
6 | CC(CC(=O)N[C@@H](c1ccn2cc([C@@H](NC(=O)[C@H]3C[C@@H]3C(F)(F)F)C3CCC(F)(F)CC3)nc2n1)C1CC1)C(F)(F)F (single isomer, unassigned) [Example 6] | 5.57 | 5.68 | 
7 | CC(CC(=O)N[C@H](c1ccn2cc([C@@H](NC(=O)c3conc3CCC(F)(F)F)C3CCC(F)(F)CC3)nc2n1)C1CC1)C(F)(F)F (single isomer, unassigned) [Example 7, N—((S)-(7-((S)-Cyclopropyl((S*)-4,4,4-trifluoro-3-methylbutanamido)methyl)imidazo[1,2-a]pyrimidin-2-yl)(4,4-difluorocyclohexyl)methyl)-3-(3,3,3-trifluoropropyl)isoxazole-4-carboxamide] | 6.28 |  | 6.06
8 | CC(CC(=O)N[C@H](c1ccn2cc([C@@H](NC(=O)c3conc3C3CC3)C3CCC(F)(F)CC3)nc2n1)C1CC1)C(F)(F)F (single isomer, unassigned) [Example 9, 3-Cyclopropyl-N—((S)-(7-((S)-cyclopropyl((S*)-4,4,4-trifluoro-3-methylbutanamido)methyl)imidazo[1,2-a]pyrimidin-2-yl)(4,4-difluorocyclohexyl)methyl)isoxazole-4-carboxamide] | 5.74 |  | 6.21
9 | CC(CC(=O)N[C@H](c1ccn2cc([C@@H](NC(=O)c3conc3C3CC3)C3CCC(F)(F)CC3)nc2n1)C1CC1)C(F)(F)F (single isomer, unassigned) [Example 10, 3-Cyclopropyl-N—((S)-(7-((S)-cyclopropyl((R*)-4,4,4-trifluoro-3-methylbutanamido)methyl)imidazo[1,2-a]pyrimidin-2-yl)(4,4-difluorocyclohexyl)methyl)isoxazole-4-carboxamide] | 5.39 |  | 5.24
10 | CC(CC(=O)N[C@@H](c1ccn2cc([C@@H](NC(=O)c3ncnn3CC3CC3)C3CCC(F)(F)CC3)nc2n1)C1CC1)C(F)(F)F (single isomer, unassigned) [Example 19, N—((S)-(7-((R)-Cyclopropyl((S*)-4,4,4-trifluoro-3-methylbutanamido)methyl)imidazo[1,2-a]pyrimidin-2-yl)(4,4-difluorocyclohexyl)methyl)-1-(cyclopropylmethyl)-1H-1,2,4-triazole-5-carboxamide] | 6.59 |  | 5.92

The remaining compounds from weak to strong by pIC50 [1], led by results:

Row | pIC50 [1] | Compound | pIC50 ([2]; Homo sapiens, Keratinocyte) | pIC50 [2]
11 | 5.51 | CC(CC(=O)N[C@H](c1ccn2cc([C@@H](NC(=O)c3ccnc(CC(F)(F)F)c3)C3CCC(F)(F)CC3)nc2n1)C1CC1)C(F)(F)F (single isomer, unassigned) [Example 3, N—((S)-(7-((S)-Cyclopropyl((R*)-4,4,4-trifluoro-3-methylbutanamido)methyl)imidazo[1,2-a]pyrimidin-2-yl)(4,4-difluorocyclohexyl)methyl)-2-(2,2,2-trifluoroethyl)isonicotinamide] | 6.19 | 
12 | 5.96 | CC(CC(=O)N[C@H](c1ccn2cc([C@@H](NC(=O)c3conc3CCC(F)(F)F)C3CCC(F)(F)CC3)nc2n1)C1CC1)C(F)(F)F (single isomer, unassigned) [Example 8, N—((S)-(7-((S)-Cyclopropyl((R*)-4,4,4-trifluoro-3-methylbutanamido)methyl)imidazo[1,2-a]pyrimidin-2-yl)(4,4-difluorocyclohexyl)methyl)-3-(3,3,3-trifluoropropyl)isoxazole-4-carboxamide] |  | 5.22
13 | 6.24 | CC(C)n1ncnc1C(=O)N[C@H](c1cn2ccc([C@H](NC(=O)CC(C)C(F)(F)F)C3CC3)nc2n1)C1CCC(F)(F)CC1 (single isomer, unassigned) [Example 18, N—((S)-(7-((R)-Cyclopropyl((R*)-4,4,4-trifluoro-3-methylbutanamido)methyl)imidazo[1,2-a]pyrimidin-2-yl)(4,4-difluorocyclohexyl)methyl)-1-isopropyl-1H-1,2,4-triazole-5-carboxamide] |  | 5.70
14 | 6.54 | O=C(CCC(F)(F)F)NC(c1ccn2cc([C@@H](NC(=O)c3cnnn3CCC(F)(F)F)C3CCC(F)(F)CC3)nc2n1)C1CC1 (single isomer, unassigned) [Example 1, N—((S)-(7-((R*)-Cyclopropyl(4,4,4-trifluorobutanamido)methyl)imidazo[1,2-a]pyrimidin-2-yl)(4,4-difluorocyclohexyl)methyl)-1-(3,3,3-trifluoropropyl)-1H-1,2,3-triazole-5-carboxamide] |  | 6.41
15 | 6.66 | CC(C)n1ncnc1C(=O)N[C@H](c1cn2ccc([C@H](NC(=O)CC(C)C(F)(F)F)C3CC3)nc2n1)C1CCC(F)(F)CC1 (single isomer, unassigned) [Example 17, N—((S)-(7-((R)-Cyclopropyl((S*)-4,4,4-trifluoro-3-methylbutanamido)methyl)imidazo[1,2-a]pyrimidin-2-yl)(4,4-difluorocyclohexyl)methyl)-1-isopropyl-1H-1,2,4-triazole-5-carboxamide] | 5.96 | 
